We go through 24 compounds from patent US20230086702A1, “SUBSTITUTED 2-AMINO-PYRAZOLYL-[1,2,4]TRIAZOLO[1,5A]PYRIDINE DERIVATIVES AND USE THEREOF” (The Johns Hopkins University, priority 2019, published 2023).

One experiment deals with T1, DLK (Homo sapiens, UniProt Q12852).
T1 construct: 10 nM DLK, catalytic domain, Carna Biosiences; purchased Carna Biosciences ('Carna Biosiences' [sic])
T1 sequence (Q12852 125-366 limits assumed): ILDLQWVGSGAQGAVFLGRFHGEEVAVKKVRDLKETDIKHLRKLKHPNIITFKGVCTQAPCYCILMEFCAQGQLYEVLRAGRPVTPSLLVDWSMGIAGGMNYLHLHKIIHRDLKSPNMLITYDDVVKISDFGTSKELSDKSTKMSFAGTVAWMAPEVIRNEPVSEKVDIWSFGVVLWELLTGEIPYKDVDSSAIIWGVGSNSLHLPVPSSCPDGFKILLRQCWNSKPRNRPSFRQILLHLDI
In words: DLK biochemical assay (TR-FRET, MKK7 phosphorylation). The following applies: DLK catalytic domain, MKK7 substrate, 60 μM ATP. On the procedure: (§1) DLK assay is a biochemical assay format designed to screen for inhibitors of DLK. Enzymatic activity of DLK is measured by monitoring phosphorylation of the physiological substrate MKK7 (MAP2K7, Dual specificity mitogen-activated protein kinase kinase 7). Phosphorylation is detected by a TR-FRET system whereby His-tagged MKK7 is labeled by a XL665-labeled anti-His antibody (FRET acceptor, emission 665 nm). DLK phosphorylates MKK7 at T275/S277, which is detected by an Eu-labeled anti-phospho-MKK7 (T275/S277) antibody (FRET donor, excitation 340 nm). Phosphorylation of MKK7 results in an increased TR-FRET signal (Ratio XL665-channel/Eu-channel) and inhibition of enzymatic activity of DLK decreases the TR-FRET signal.
All indicated concentrations are final concentrations.
(§2) Detection buffer: 25 mM Tris/HCl pH 7.5, 100 mM EDTA, 100 mM NaCl, 200 mM KF, 0.01% Tween 20, 1:500 Smart Block.

Another experiment has as its target T2, LZK (Homo sapiens, UniProt O43283).
T2 construct: 10 nM LZK, catalytic domain, Carna Biosiences in assay buffer; purchased Carna Biosciences ('Carna Biosiences' [sic])
T2 sequence (O43283 168-409 limits assumed): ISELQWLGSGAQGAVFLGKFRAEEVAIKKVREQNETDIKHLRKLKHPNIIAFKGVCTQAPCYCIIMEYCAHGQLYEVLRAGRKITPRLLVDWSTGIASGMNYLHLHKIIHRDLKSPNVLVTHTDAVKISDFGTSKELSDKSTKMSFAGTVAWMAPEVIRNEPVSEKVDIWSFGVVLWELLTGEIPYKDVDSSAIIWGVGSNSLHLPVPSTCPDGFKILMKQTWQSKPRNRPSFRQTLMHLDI
In words: LZK biochemical assay (TR-FRET, MKK7 phosphorylation). The following applies: LZK catalytic domain, MKK7 substrate, 15 μM ATP. The method, then:
as §1, with “LZK” for “DLK”, “LZK.” for “DLK.”, “T275/S277” for “T275/S277,”
All indicated concentrations final concentrations.
as §2

For the compound `CCC(c1ccc(C(F)(F)F)nc1)n1cc(-c2cc(C(=O)N[C@@H](C)CO)c3nc(N)nn3c2)cn1` (mixture of isomers) [Example I-151, 2-Amino-N-[(2S)-1-hydroxypropan-2-yl]-6-(1-{1-[6-(trifluoromethyl)pyridin-3-yl]propyl}-1H-pyrazol-4-yl)[1,2,4]triazolo[1,5-a]pyridine-8-carboxamide], the IC50 worked out at 6.9 nM on DLK and 9.8 nM at LZK.
The like results for `CC[C@H](C)NC(=O)c1cc(-c2cnn(C(c3cncc(Cl)c3)C(C)C)c2)cn2nc(N)nc12` (single isomer, unassigned) [Example I-62] were, in that order, 8.8 nM and 74 nM.
As to `CC[C@H](C)NC(=O)c1cc(-c2cnn(C(c3ccccc3)C3(C)CC3)c2)cn2nc(N)nc12` (mixture of isomers) [Example I-28, 2-Amino-N-[(2S)-butan-2-yl]-6-{1[(1-methylcyclopropyl)(phenyl)methyl]-1H-pyrazol-4-yl}[1,2,4]triazolo[1,5-a]pyridine-8-carboxamide], the IC50 at DLK is 9.2 nM; against LZK, 380 nM.
For `CC[C@H](C)NC(=O)c1cc(-c2cnn(C(c3ccc(OCC(F)(F)F)nc3)C3CC3)c2)cc2nc(N)nn12` (mixture of isomers) [Example I-119, 2-Amino-N-[(2S)-butan-2-yl]-7-(1-{cyclopropyl[6-(2,2,2-trifluoroethoxy)pyridin-3-yl]methyl}-1H-pyrazol-4-yl)[1,2,4]triazolo[1,5-a]pyridine-5-carboxamide] the same measures were 6.5 nM and 36 nM.
Regarding `CC[C@H](C)NC(=O)c1cc(-c2cnn([C@H](c3ccc(C(F)(F)F)nc3)C(C)C)c2)cn2nc(N)nc12` (single isomer, unassigned) [Example I-75], the IC50 is 1.1 nM against DLK and 2.4 nM against LZK.
The like results for `CCC(c1ccc(OCC(F)(F)F)nc1)n1cc(-c2cc(C(=O)N[C@@H](C)CC)n3nc(N)nc3c2)cn1` (single isomer, unassigned) [Example I-114] were, in that order, 49 nM and 130 nM.
The like results for `CC(CF)NC(=O)c1cc(-c2cnn(C3CCOc4ccccc43)c2)cn2nc(N)nc12` (single isomer, unassigned) [Example I-145, 2-Amino-6-[1-(3,4-dihydro-2H-chromen-4-yl)-1H-pyrazol-4-yl]-N-(1-fluoropropan-2-yl)[1,2,4]triazolo[1,5-a]pyridine-8-carboxamide] were, in that order, 110 nM and 110 nM.
The like results for `CC[C@H](C)NC(=O)c1cc(-c2cnn([C@@H](CC)c3ccc(C(F)(F)F)nc3)c2)cn2nc(N)nc12` (single isomer, unassigned) [Example I-71] were, in that order, 1.4 nM and 4.5 nM.
Turning to `CC(CF)NC(=O)c1cc(-c2cnn(C3CCOc4ccccc43)c2)cn2nc(N)nc12` (single isomer, unassigned) [Example I-146, 2-Amino-6-[1-(3,4-dihydro-2H-chromen-4-yl)-1H-pyrazol-4-yl]-N-(1-fluoropropan-2-yl)[1,2,4]triazolo[1,5-a]pyridine-8-carboxamide], the IC50 against DLK was determined as 130 nM; against LZK it was 85 nM.
The like results for `CC[C@H](C)NC(=O)c1cc(-c2cnn(C(c3ccc(F)cc3)C(C)C)c2)cn2nc(N)nc12` (mixture of isomers) [Example I-43, 2-Amino-N-[(2S)-butan-2-yl]-6-{1-[1-(4-fluorophenyl)-2-methylpropyl]-1H-pyrazol-4-yl}[1,2,4]triazolo[1,5-a]pyridine-8-carboxamide] were, in that order, 2.9 nM and 66 nM.
For the compound `CC[C@H](C)NC(=O)c1cc(-c2cnn(C(c3ccc(OCC(F)(F)F)nc3)C(C)C)c2)cc2nc(N)nn12` (single isomer, unassigned) [Example I-117], the results for the IC50 at DLK and against LZK were 73 nM and 250 nM, respectively.
The like results for `CCC(c1ccc(F)cn1)n1cc(-c2cc(C(=O)N[C@@H](C)CC)c3nc(N)nn3c2)cn1` (single isomer, unassigned) [Example I-57] were, in that order, 59 nM and 61 nM.
The like results for `CC[C@H](C)NC(=O)c1cc(-c2cnn(C(c3c(F)cncc3F)C(C)C)c2)cc2nc(N)nn12` (mixture of isomers) [Example I-123, 2-Amino-N-[(2S)-butan-2-yl]-7-{1-[1-(3,5-difluoropyridin-4-yl)-2-methylpropyl]-1H-pyrazol-4-yl}[1,2,4]triazolo[1,5-a]pyridine-5-carboxamide] were, in that order, 5.9 nM and 170 nM.
Turning to `CC[C@H](C)NC(=O)c1cc(-c2cnn([C@@H](CC)c3ccc(C(F)(F)F)nc3)c2)cc2nc(N)nn12` (single isomer, unassigned) [Example I-103], the figures for the IC50 against DLK and at LZK were 0.8 nM and 2.4 nM, respectively.
Consider `CC[C@H](C)NC(=O)c1cc(-c2cnn(C(c3ccc(C(F)(F)F)nc3)C3CCOCC3)c2)cc2nc(N)nn12` (single isomer, unassigned) [Example I-112], for which the IC50 was found to be 8 nM against DLK and 7 nM on LZK.
`CC[C@H](C)NC(=O)c1cc(-c2cnn(C(COC)c3ccccc3)c2)cn2nc(N)nc12` (single isomer, unassigned) [Example I-41]: the results for the IC50 at DLK and at LZK were 2.8 nM and 26 nM, respectively.
The like results for `CC[C@H](C)NC(=O)c1cc(-c2cnn(C3CCc4ccccc43)c2)cn2nc(N)nc12` (single isomer, unassigned) [Example I-14] were, in that order, 12 nM and 4.7 nM.
The like results for `CC[C@H](C)NC(=O)c1cc(-c2cnn(C(c3ccccc3)C(C)C)c2)cc2nc(N)nn12` (mixture of isomers) [Example I-24, 2-Amino-N-[(2S)-butan-2-yl]-7-{1-[2-methyl-1-phenylpropyl]-1H-pyrazol-4-yl}[1,2,4]triazolo[1,5-a]pyridine-5-carboxamide] were, in that order, 2.7 nM and 23 nM.
With `CC[C@H](c1ccc(C(F)(F)F)nc1)n1cc(-c2cc(C(=O)N[C@@H](C)CC)c3nc(N)nn3c2)cn1` (single isomer, unassigned) [Example I-72], the IC50 was 10 nM on DLK and 16 nM on LZK.
In the case of `CCC(c1ccc(C(F)(F)F)nc1)n1cc(-c2cc(C(=O)N[C@H]3CCOC3)n3nc(N)nc3c2)cn1` (mixture of isomers) [Example I-177, 2-Amino-N-[(3S)-tetrahydrofuran-3-yl]-7-(1-{1-[6-(trifluoromethyl)pyridin-3-yl]propyl}-1H-pyrazol-4-yl)[1,2,4]triazolo[1,5-a]pyridine-5-carboxamide], the IC50 worked out at 2.6 nM at DLK and 18 nM at LZK.
For `CC[C@H](C)NC(=O)c1cc(-c2cnn(C(c3ccc(C(F)(F)F)nc3)C3CCOCC3)c2)cc2nc(N)nn12` (single isomer, unassigned) [Example I-111] the same measures were 0.5 nM and 1.4 nM.
For `CC[C@H](C)NC(=O)c1cc(-c2cnn(C(c3ccc(C(F)(F)F)nc3)C3CCOCC3)c2)cn2nc(N)nc12` (mixture of isomers) [Example I-76, 2-Amino-N-[(2S)-butan-2-yl]-6-(1-{tetrahydro-2H-pyran-4-yl[6-(trifluoromethyl)pyridin-3-yl]methyl}-1H-pyrazol-4-yl)[1,2,4]triazolo[1,5-a]pyridine-8-carboxamide] the same measures were 0.5 nM and 1.1 nM.
Consider `Nc1nc2cc(-c3cnn(C(c4ccc(C(F)(F)F)nc4)C4CCOCC4)c3)cc(C(=O)N[C@H]3CCOC3)n2n1` (single isomer, unassigned) [Example I-184], for which the IC50 against DLK is 13 nM; at LZK, 22 nM.
For `CC(C)[C@@H](c1ccc(F)cc1)n1cc(-c2cc(C(=O)N[C@@H](C)CO)c3nc(N)nn3c2)cn1` (single isomer, unassigned) [Example I-162] the same measures were 1.3 nM and 83 nM.
